Drawing on PMC9315372, “Impact of Sub-MIC Eugenol on Klebsiella pneumoniae Biofilm Formation via Upregulation of rcsB” (Frontiers in Veterinary Science, 2022), this text covers Kd for one compound.

The target of the assay is T1, RcsB (Klebsiella pneumoniae, UniProt W1DMM9).
T1 construct: expressed and purified earlier in the laboratory
The assay is described as follows: microscale thermophoresis (Monolith NT.[…]). Format: binding. (In general: In MST a laser heats a spot of the sample, and binding alters the fluorescence response.)

T1 sequence (W1DMM9 entry or part of it): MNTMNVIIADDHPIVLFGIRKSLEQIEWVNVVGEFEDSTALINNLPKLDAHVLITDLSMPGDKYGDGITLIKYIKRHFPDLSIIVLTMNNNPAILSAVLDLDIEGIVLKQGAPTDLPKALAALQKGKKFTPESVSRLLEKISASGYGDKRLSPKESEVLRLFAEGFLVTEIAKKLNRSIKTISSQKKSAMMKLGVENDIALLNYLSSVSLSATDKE

One may read the Kd as the constant that tells how readily two partners part at equilibrium. A high value points to weaker binding. As for `C=CCc1ccc(O)c(OC)c1` [eugenol], the Kd was found to be 53.4 µM.
